SMILES strings stand for the structures.

In the first test the target is T1, CaV2.2 (Homo sapiens, UniProt Q00975).
T1 construct: expressed in transfected cells; host or cells: unnamed doxycycline-inducible cell line
T1 sequence (Q00975 whole entry): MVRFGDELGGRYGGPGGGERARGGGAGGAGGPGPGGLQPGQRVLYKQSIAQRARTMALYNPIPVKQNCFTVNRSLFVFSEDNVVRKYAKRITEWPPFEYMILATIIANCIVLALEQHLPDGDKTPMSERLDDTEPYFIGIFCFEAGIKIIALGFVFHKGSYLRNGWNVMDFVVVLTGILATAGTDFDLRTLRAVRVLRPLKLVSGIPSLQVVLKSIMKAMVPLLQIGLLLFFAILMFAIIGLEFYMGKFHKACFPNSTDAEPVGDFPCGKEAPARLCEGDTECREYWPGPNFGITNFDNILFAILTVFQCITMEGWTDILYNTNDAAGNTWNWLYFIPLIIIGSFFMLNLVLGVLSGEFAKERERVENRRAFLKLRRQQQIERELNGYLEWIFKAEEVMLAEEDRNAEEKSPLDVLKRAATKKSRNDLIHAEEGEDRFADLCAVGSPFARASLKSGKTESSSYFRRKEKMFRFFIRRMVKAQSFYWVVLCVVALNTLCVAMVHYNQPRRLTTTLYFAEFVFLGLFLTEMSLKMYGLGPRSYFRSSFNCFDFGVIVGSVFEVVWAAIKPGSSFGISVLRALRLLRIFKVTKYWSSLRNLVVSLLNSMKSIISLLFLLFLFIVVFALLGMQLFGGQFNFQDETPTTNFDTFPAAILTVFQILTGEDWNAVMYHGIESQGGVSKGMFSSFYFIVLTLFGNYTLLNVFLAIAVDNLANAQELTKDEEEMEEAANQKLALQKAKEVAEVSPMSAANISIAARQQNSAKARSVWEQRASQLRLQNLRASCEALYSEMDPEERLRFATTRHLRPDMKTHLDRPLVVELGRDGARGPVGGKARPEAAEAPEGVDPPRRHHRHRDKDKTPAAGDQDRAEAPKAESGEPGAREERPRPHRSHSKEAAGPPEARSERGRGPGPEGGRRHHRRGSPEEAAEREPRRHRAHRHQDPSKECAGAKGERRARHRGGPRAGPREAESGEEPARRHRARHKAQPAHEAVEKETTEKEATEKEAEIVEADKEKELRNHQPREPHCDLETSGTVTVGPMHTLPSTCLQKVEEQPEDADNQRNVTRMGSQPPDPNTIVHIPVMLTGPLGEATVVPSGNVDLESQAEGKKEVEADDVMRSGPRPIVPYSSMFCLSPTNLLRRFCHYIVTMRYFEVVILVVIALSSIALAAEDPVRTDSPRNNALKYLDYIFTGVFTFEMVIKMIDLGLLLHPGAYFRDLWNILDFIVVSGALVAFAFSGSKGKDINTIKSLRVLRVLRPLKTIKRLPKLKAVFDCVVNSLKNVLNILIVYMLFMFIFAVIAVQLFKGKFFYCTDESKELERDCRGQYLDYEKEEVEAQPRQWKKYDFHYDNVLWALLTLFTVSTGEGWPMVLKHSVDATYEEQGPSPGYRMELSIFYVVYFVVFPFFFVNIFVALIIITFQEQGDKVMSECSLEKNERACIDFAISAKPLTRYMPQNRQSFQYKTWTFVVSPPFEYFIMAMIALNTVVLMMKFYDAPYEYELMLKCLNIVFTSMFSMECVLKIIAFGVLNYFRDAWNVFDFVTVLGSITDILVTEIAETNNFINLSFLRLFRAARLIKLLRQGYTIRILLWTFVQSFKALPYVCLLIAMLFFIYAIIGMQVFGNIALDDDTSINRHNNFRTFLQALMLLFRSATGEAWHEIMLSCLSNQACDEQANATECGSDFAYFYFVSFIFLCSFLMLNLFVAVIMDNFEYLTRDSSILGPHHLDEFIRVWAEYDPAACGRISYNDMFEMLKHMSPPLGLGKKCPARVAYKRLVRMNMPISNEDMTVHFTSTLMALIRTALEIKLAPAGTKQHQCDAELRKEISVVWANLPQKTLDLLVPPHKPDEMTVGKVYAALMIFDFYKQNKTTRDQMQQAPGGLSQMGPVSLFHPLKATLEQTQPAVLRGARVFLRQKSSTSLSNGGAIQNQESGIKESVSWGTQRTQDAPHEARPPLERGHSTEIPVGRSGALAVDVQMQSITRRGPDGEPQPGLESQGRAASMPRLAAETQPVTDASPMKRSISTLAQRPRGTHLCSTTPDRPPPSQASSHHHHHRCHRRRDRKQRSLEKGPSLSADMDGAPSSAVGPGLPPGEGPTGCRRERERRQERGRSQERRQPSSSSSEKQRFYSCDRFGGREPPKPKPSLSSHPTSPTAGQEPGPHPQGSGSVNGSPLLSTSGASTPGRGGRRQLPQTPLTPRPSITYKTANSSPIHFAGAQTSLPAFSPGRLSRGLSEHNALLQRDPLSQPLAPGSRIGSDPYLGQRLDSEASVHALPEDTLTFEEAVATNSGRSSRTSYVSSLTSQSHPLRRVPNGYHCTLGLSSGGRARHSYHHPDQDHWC
T1 sequence (P54284 whole entry partner): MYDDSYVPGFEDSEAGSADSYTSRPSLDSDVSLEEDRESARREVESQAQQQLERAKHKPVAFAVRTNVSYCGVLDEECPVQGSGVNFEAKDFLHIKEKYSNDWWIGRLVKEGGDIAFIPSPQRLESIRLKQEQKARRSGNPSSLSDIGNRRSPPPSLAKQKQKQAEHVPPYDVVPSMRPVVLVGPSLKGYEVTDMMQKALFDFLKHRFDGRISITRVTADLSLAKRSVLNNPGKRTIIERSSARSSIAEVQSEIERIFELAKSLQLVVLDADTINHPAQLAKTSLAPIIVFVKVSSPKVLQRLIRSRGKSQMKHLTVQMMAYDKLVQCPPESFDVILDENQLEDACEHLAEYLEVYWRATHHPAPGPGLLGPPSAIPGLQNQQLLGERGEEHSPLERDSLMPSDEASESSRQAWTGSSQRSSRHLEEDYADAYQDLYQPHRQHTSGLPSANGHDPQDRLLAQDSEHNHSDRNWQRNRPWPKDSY
T1 sequence (P54289 25-946 partner limits assumed): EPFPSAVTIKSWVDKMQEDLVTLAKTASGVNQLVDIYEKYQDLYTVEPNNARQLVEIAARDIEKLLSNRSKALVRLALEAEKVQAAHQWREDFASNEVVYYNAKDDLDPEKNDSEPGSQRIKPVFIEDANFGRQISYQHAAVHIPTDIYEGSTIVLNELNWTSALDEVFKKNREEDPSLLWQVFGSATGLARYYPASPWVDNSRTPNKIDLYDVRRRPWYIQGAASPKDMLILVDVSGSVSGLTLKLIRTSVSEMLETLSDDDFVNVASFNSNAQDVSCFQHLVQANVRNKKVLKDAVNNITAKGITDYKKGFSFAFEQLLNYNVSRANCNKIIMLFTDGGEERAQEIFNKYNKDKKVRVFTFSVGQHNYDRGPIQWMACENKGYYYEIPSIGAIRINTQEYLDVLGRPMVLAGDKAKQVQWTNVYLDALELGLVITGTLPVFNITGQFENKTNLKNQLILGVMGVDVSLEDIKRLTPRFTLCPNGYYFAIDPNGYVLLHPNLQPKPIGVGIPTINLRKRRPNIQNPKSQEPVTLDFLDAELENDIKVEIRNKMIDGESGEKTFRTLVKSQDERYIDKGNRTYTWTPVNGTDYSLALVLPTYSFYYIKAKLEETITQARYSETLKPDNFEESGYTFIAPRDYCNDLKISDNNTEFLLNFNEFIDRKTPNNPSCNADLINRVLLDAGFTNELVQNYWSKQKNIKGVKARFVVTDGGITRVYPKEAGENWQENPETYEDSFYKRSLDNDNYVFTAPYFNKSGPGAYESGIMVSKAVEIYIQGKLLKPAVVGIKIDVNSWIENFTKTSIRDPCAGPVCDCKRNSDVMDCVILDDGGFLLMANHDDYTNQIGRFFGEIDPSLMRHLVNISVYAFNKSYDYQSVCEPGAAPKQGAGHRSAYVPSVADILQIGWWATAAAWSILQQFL
T1 sequence (P54289 947-1103 partner limits assumed): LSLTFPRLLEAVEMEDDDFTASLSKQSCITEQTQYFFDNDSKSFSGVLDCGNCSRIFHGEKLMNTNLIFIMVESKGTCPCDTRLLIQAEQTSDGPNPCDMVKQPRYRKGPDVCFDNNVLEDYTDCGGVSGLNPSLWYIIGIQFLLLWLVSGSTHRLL
In words: High-throughput CaV2.2/Kir2.3 FLIPR fluorescent assay. The note with it: FLIPR data CaV2.2 (nM), Table 5; Fluo-4 FLIPR; closed or inactivated state not stated. It counts as cell-based. On the procedure:
Cells were plated in 384-well, clear-bottom, black-walled, poly-D-lysine coated plates (Becton Dickinson, Franklin Lake, N.J.) 2 days prior to use in the FLIPR assay. 100 μL of cells (1.4×10^6 cell/mL) containing doxycyline (Sigma-Aldrich, 1.5 μg/mL; to induce channel expression) were added to each well using a Multidrop (Thermo Scientific, Waltham, Mass.) and were maintained in 5% CO2 incubator at 37° C. On the morning of the assay, cells were transferred to a 5% CO2 incubator at 29° C.
Cells were washed with a wash buffer containing (in mM): 118 NaCl, 18.4 HEPES, 11.7 D-glucose, 2 CaCl2, 0.5 MgSO4, 4.7 KCl, 1.2 KH2PO4, pH adjusted to 7.2 with NaOH. 4.4 μM of the fluorescent indicator dye, Fluo-4 (Invitrogen), prepared in pluronic acid (Sigma-Aldrich), was loaded into the wells and incubated for 45 minutes at 29° C. in 5% CO2. Cells were then rinsed with either a 2 mM KCl closed-state buffer (in mM: 138.5 NaCl, 10 HEPES, 10 D-glucose, 1 CaCl2, and 2 KCl, with the pH adjusted to 7.4 with NaOH) when performing the closed-state assay or 12.5 mM KCl inactivated-state buffer (in mM: 128 NaCl, 10 HEPES, 10 D-glucose, 1 CaCl2, and 12.5 mM KCl, with the pH adjusted to 7.4 with NaOH) when performing the inactivated-state assay.
Calcium entry was evoked with an addition of 130 mM KCl stimulation buffer (in mM: 10.5 NaCl, 10 HEPES, 10 D-glucose, 1 CaCl2, and 130 KCl, with the pH adjusted to 7.4 with NaOH) for both the closed-state or inactivated-state assay. A change in the Fluo-4 fluorescence signal was assessed using FLIPR^TETRA™ instrument (Molecular Devices, Sunnyvale, Calif.) for 3 minutes following the elevation of extracellular KCl using an illumination wavelength of 470-495 nm with emissions recorded at 515-575 nm.
Concentration-dependent response curves were obtained by comparing the fluorescence signal in the presence of compound and fitted with a logistic function (1) to obtain the concentration that inhibited 50% (IC50) of the RLU signal using OriginPro v.7.5 software (OriginLab, Northampton, Mass.).
To assess the quality of the FLIPR assays the Z-factor (2) was used to quantify the suitability of the assay conditions using the following equation: […]
Data are expressed as mean and standard deviation (SD).
For the compound `CC(C)C[C@H](CN)CC(=O)NCCC(C)(C)S(=O)(=O)c1cccc(C(F)(F)F)c1` [Compound 224, (S)-3-(aminomethyl)-5-methyl-N-(3-methyl-3-((3-(trifluoromethyl)phenyl)sulfonyl)butyl)hexanamide], the IC50 worked out at 470 nM.

Staying with this test, now noted: Table 4; Fluo-4 FLIPR; closed or inactivated state not stated; read-out: FLIPR data CaV2.2.
With `NC1(C(=O)NCc2ccc(S(=O)(=O)c3cccc(C(F)(F)F)c3)cc2)CC1` [Compound 65, 1-amino-N-(4-((3-(trifluoromethyl)phenyl)sulfonyl)benzyl)cyclopropanecarboxamide], the IC50 came to 5630 nM. Same read-out and setting: the value for `CS(=O)(=O)c1nc(C(F)(F)F)ccc1C(=O)NCc1cc(S(=O)(=O)c2cccc(C(F)(F)F)c2)ccn1` [Compound 110, 2-(methylsulfonyl)-6-(trifluoromethyl)-N-((4-((3-(trifluoromethyl)phenyl)sulfonyl)pyridin-2-yl)methyl)nicotinamide] was 2210 nM; that for `O=C(NCc1ccc(S(=O)(=O)c2cccc(C(F)(F)F)c2)cn1)c1ccnn1CC(F)(F)F` [Compound 100, 1-(2,2,2-trifluoroethyl)-N-((5-((3-(trifluoromethyl)phenyl)sulfonyl)pyridin-2-yl)methyl)-1H-pyrazole-5-carboxamide] was 1320 nM; that for `O=C(NCc1cc(S(=O)(=O)c2cccc(C(F)(F)F)c2)ccn1)c1cn2cc(C(F)(F)F)ccc2n1` [Compound 116, 6-(trifluoromethyl)-N-((4-((3-(trifluoromethyl)phenyl)sulfonyl)pyridin-2-yl)methyl)imidazo[1,2-a]pyridine-2-carboxamide] was 1170 nM. Same read-out and setting: as for `NC1(C(=O)NCc2ccc(S(=O)(=O)c3cccc(C(F)(F)F)c3)cc2)CCS(=O)(=O)CC1` [Compound 61, 4-amino-N-(4-((3-(trifluoromethyl)phenyl)sulfonyl)benzyl)tetrahydro-2H-thiopyran-4-carboxamide 1,1-dioxide], the figure is 4680 nM; as for `O=C(NCc1ccc(S(=O)(=O)c2cccc(C(F)(F)F)c2)cc1)C1CCCCN1` (stereo not shown) [Compound 59, N-(4-((3-(trifluoromethyl)phenyl)sulfonyl)benzyl)piperidine-2-carboxamide], 1000 nM; as for `CO[C@H]1CN[C@@H](C(=O)NCc2ccc(S(=O)(=O)c3cccc(C(F)(F)F)c3)cc2)C1` [Compound 82, (2R,4R)-4-methoxy-N-(4-((3-(trifluoromethyl)phenyl)sulfonyl)benzyl)pyrrolidine-2-carboxamide], 970 nM. Same read-out and setting: the value for `O=C(NCc1ccccc1S(=O)(=O)c1cccc(C(F)(F)F)c1)[C@@H]1CCCN1` [Compound 76, (S)-N-(2-((3-(trifluoromethyl)phenyl)sulfonyl)benzyl)pyrrolidine-2-carboxamide] was 5540 nM.

The same test, now with this note: Table 5; Fluo-4 FLIPR; closed or inactivated state not stated; read-out: FLIPR data CaV2.2.
For the compound `CC(C)(N)C(=O)NCCC(C)(C)S(=O)(=O)c1cccc(C(F)(F)F)c1` [Compound 201, 2-amino-2-methyl-N-(3-methyl-3-((3-(trifluoromethyl)phenyl)sulfonyl)butyl)propanamide], the IC50 was found to be 10000 nM. For the compound `CC(C)(CCNC(=O)[C@H](N)c1ccccc1)S(=O)(=O)c1cccc(C(F)(F)F)c1` [Compound 200], the IC50 was 1050 nM. Still for that read-out and setting: the value for `CC(C)(CNC(=O)c1ccc(S(C)(=O)=O)cc1Cl)S(=O)(=O)c1cccc(C(F)(F)F)c1` [Compound 158, 2-chloro-N-(2-methyl-2-((3-(trifluoromethyl)phenyl)sulfonyl)propyl)-4-(methylsulfonyl)benzamide] was 2920 nM; that for `CC(C)(CNC(=O)c1ccc(S(C)(=O)=O)cc1)S(=O)(=O)c1cccc(C(F)(F)F)c1` [Compound 171, N-(2-methyl-2-((3-(trifluoromethyl)phenyl)sulfonyl)propyl)-4-(methylsulfonyl)benzamide] was 8120 nM.

Regarding `CC(C)(CCNC(=O)[C@@H]1CCCCN1)S(=O)(=O)c1cccc(C(F)(F)F)c1` [Compound 196, (S)-N-(3-methyl-3-((3-(trifluoromethyl)phenyl)sulfonyl)butyl)piperidine-2-carboxamide], the IC50 was found to be 3510 nM.

On to `CC(C)(C)Oc1ccc(CNC(=O)C(C)(C)S(=O)(=O)c2cccc(C(F)(F)F)c2)cc1` [Compound 144, N-(4-(tert-butoxy)benzyl)-2-methyl-2-((3-(trifluoromethyl)phenyl)sulfonyl)propanamide], for which the IC50 worked out at 360 nM. `CC(C)(CNC(=O)c1ccc(F)cc1)S(=O)(=O)c1cccc(C(F)(F)F)c1` [Compound 157, 4-fluoro-N-(2-methyl-2-((3-(trifluoromethyl)phenyl)sulfonyl)propyl)benzamide]: the IC50 turned out to be 5370 nM.

Take `CC(C)(CCNC(=O)[C@H]1CCCN1)S(=O)(=O)c1cccc(C(F)(F)F)c1` [Compound 220, (R)-N-(3-methyl-3-((3-(trifluoromethyl)phenyl)sulfonyl)butyl)pyrrolidine-2-carboxamide]: the IC50 turned out to be 3430 nM. For the compound `CC(C)(CNC(=O)c1cnccc1C(F)(F)F)S(=O)(=O)c1cccc(C(F)(F)F)c1` [Compound 174, N-(2-methyl-2-((3-(trifluoromethyl)phenyl)sulfonyl)propyl)-4-(trifluoromethyl)nicotinamide], the IC50 is 4360 nM. `Cc1c(C(=O)NCCC(C)(C)S(=O)(=O)c2cccc(C(F)(F)F)c2)sc2nc[nH]c(=O)c12` [Compound 210, 5-methyl-N-(3-methyl-3-((3-(trifluoromethyl)phenyl)sulfonyl)butyl)-4-oxo-3,4-dihydrothieno[2,3-d]pyrimidine-6-carboxamide]: the IC50 worked out at 3320 nM.

As for `CC(C)(CCNC(=O)[C@@H]1C[C@@H](F)CN1)S(=O)(=O)c1cccc(C(F)(F)F)c1` [Compound 216, (2S,4R)-4-fluoro-N-(3-methyl-3-((3-(trifluoromethyl)phenyl)sulfonyl)butyl)pyrrolidine-2-carboxamide], the IC50 worked out at 8930 nM. As to `CC(C)(CCNC(=O)C1(N)CC1)S(=O)(=O)c1cccc(C(F)(F)F)c1` [Compound 202, 1-amino-N-(3-methyl-3-((3-(trifluoromethyl)phenyl)sulfonyl)butyl)cyclopropanecarboxamide], the IC50 is 10000 nM. Turning to `CO[C@H]1CN[C@@H](C(=O)NCCC(C)(C)S(=O)(=O)c2cccc(C(F)(F)F)c2)C1` [Compound 199, (2R,4R)-4-methoxy-N-(3-methyl-3-((3-(trifluoromethyl)phenyl)sulfonyl)butyl)pyrrolidine-2-carboxamide], the IC50 turned out to be 3310 nM.

Regarding `CC(C)(C(=O)N1Cc2ccncc2C1)S(=O)(=O)c1cccc(C(F)(F)F)c1` [Compound 148, 2-methyl-1-(1H-pyrrolo[3,4-c]pyridin-2(3H)-yl)-2-((3-(trifluoromethyl)phenyl)sulfonyl)propan-1-one], the IC50 was found to be 10000 nM. On the same count and under the same terms, the value for `CC(C)(CCNC(=O)C1(N)CCOCC1)S(=O)(=O)c1cccc(C(F)(F)F)c1` [Compound 197, 4-amino-N-(3-methyl-3-((3-(trifluoromethyl)phenyl)sulfonyl)butyl)tetrahydro-2H-pyran-4-carboxamide] was 10000 nM; that for `CC(C)(CCNC(=O)c1ccc(C(F)(F)F)nc1S(C)(=O)=O)S(=O)(=O)c1cccc(C(F)(F)F)c1` [Compound 183, N-(3-methyl-3-((3-(trifluoromethyl)phenyl)sulfonyl)butyl)-2-(methylsulfonyl)-6-(trifluoromethyl)nicotinamide] was 1560 nM.

The record behind these values is patent US20140113898A1, “BISARYLSULFONE AND DIALKYLARYLSULFONE COMPOUNDS AS CALCIUM CHANNEL BLOCKERS” (Zalicus Pharmaceuticals Ltd., priority 2010, published 2014).
